Reference: BindingDB's records for doi:10.3109/14756366.2012.658786 (Yeungnam University, 2013)

The molecules below were run against Fatty acid synthase (Gallus gallus, UniProt P12276) (assay: FAS Inhibitory Assay). Conditions: pH 7; 37 °C.
Experimental: To each microtube (final volume: 100 μL), FAS was added (20-30 μg protein) in a buffer containing 100 mM potassium phosphate (pH 7.0), 2.5 mM dithiothreitol and 2.0 mM EDTA with or without test compounds. The mixtures were preincubated at 37°C for 60 min and the reaction was started by the addition of a substrate mixture containing 0.25 mM NADPH, 0.4 nmol of malonyl CoA and 0.02 μCi of [3H] acetyl CoA. Following incubation at 37°C for 10 min, the reaction was terminated with 60% HClO4. Fatty acids were extracted with 1 mL of hexane and incorporation of radioactivity into the fatty acids was assessed by scintillation counting [Na et al., Bioorg. Med. Chem. Lett., 16:4738-4742].

Sequence of Fatty acid synthase (P12276 whole entry): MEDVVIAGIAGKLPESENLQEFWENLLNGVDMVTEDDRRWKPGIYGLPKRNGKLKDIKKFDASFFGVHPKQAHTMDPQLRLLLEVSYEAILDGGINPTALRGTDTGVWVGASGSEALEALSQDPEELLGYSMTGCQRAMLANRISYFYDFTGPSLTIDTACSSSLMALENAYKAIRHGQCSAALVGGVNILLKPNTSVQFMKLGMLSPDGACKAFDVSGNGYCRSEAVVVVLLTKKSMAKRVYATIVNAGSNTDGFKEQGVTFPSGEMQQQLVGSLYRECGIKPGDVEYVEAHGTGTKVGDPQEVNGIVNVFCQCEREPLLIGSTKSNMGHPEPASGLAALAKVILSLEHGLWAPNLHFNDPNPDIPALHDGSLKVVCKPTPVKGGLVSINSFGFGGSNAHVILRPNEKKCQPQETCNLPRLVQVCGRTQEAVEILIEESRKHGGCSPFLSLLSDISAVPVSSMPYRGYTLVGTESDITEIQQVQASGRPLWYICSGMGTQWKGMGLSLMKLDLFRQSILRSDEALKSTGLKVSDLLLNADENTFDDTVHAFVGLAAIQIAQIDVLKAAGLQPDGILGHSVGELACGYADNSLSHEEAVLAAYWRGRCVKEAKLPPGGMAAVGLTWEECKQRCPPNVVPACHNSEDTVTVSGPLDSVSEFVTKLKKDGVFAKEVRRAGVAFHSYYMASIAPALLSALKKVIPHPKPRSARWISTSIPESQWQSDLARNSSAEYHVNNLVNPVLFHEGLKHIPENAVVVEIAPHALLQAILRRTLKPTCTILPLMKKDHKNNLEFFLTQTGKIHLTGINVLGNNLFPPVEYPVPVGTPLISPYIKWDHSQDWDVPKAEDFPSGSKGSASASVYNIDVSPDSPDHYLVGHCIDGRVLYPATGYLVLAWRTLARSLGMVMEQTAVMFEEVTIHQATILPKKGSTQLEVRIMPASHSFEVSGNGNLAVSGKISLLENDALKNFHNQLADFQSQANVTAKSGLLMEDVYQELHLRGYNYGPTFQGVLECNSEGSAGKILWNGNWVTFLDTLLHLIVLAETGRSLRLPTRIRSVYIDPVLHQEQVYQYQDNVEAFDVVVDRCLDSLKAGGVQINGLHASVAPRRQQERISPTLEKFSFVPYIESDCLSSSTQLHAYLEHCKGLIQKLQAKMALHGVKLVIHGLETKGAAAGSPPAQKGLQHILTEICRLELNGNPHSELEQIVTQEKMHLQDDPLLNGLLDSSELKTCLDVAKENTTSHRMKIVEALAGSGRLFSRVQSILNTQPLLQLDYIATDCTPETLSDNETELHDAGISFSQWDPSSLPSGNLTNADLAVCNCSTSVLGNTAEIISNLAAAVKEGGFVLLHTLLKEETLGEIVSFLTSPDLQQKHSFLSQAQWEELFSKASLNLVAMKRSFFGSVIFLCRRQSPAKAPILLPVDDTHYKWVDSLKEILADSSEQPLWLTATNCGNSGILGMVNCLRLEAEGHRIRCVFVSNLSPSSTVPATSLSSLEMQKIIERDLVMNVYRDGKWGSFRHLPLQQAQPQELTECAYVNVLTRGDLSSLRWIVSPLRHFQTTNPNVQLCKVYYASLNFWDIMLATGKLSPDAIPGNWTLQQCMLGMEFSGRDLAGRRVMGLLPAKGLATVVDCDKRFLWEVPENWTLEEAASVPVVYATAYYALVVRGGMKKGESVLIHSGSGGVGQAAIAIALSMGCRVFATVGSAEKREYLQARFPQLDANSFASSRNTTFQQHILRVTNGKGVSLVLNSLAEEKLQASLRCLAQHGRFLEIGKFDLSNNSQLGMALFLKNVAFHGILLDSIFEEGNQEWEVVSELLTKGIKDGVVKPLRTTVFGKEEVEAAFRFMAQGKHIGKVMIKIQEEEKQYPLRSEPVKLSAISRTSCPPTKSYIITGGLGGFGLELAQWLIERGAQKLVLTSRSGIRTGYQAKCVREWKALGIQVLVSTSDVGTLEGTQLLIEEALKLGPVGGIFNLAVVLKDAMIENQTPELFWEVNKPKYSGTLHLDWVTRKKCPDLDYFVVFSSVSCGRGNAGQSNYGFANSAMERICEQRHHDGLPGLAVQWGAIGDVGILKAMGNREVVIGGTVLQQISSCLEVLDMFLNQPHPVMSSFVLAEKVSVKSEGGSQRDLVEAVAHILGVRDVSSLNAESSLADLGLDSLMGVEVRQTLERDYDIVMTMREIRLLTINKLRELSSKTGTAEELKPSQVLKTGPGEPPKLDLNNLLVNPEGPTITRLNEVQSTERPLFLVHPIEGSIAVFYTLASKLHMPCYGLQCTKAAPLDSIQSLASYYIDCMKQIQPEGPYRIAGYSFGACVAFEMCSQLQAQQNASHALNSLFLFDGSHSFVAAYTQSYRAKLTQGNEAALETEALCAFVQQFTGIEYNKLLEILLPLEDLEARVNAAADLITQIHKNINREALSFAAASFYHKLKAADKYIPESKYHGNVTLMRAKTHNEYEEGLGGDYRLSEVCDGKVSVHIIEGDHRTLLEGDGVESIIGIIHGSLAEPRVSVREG

Compound | IC50 [µM]
C/C=C/C/C=C/CCC(=O)[C@H]1O[C@H]1C(N)=O | 13
O=c1cc(-c2ccc(O)c(O)c2)oc2cc(O)cc(O)c12 [2-(3,4-dihydroxyphenyl)-5,7-dihydroxy-4H-chromen-4-one] | 62.5
CCCCCC/C=C\CCCCCCCCCc1cccc(O)c1C(=O)O [6-[10'(Z)-heptade-cenyljsalicylic acid] | 10.5
CCCCCC/C=C\CCCCCCCc1cccc(O)c1C(=O)O [6-{8(Z)-pentadecenyl}salicylic acid] | 17.1
CCCCC/C=C/C/C=C/CCCCCCCc1cccc(O)c1C(=O)O [Ginkgolic acid C17:2 (2)] | 9.2
